According to US11072601B2, “μ-opioid receptor agonist and preparation method therefor and use thereof in field of medicine” (SHANGHAI SYNERGY PHARMACEUTICAL SCIENCES CO., LTD., priority 2017, dated 2021):

How the values were obtained:
[1] = Pharmacokinetic test in rats, intravenous; type: in vivo; conditions: male, SD, rat, plasma, intravenous 1 mg/kg; for AUC: read-out: curve area (AUC); for half-life: read-out: half life (T½) (converted); for Cmax: read-out: plasma concentration (Cmax)
From the text: 8-week-old male SD rats weighing 200-300 g were used as experimental animals, and LC/MS/MS method was used to determine the drug concentration in plasma at different times after the administration of the compound of Example H01, the compound of Example H04, the compound of Example H05, the compound of Example H07, the compound of Example H16, the compound of Example H17, the compound of Example H18, the compound of Example H21, and the compound of Example H24. The pharmacokinetic behavior of the compounds of the present invention in rats was studied, and its pharmacokinetic characteristics were evaluated.
A certain amount of the compounds were weighed, and dissolved in ethanol/castor oil/water=10/10/80 to form a uniform solution.
The above compounds were administered intravenously to rats at a dose of 1 mg/kg, and 0.2 ml of blood was collected from the orbit at 0.083, 0.25, 0.5, 1.0, 2.0, 4.0, 6.0, 8.0, 12.0, 24.0 hours before and after administration, and placed in an anticoagulant tube, the plasma was separated by centrifugation at 6,000 rpm for 10 minutes at 4° C., and stored at −80° C.
50 μL of plasma was taken at different times, 150 μL of acetonitrile solution containing internal standard tolbutamide (200 ng/mL) was added, the system was mixed and shaked for 5 minutes, 12000 rpm, centrifuged for 5 minutes, 100 μL of supernatant was removed, and then mixed with 200 μL of water, then the sample was loaded for analysis. The internal standard tolbutamide solid (Aladdin, T129578) powder was dissolved in DMSO to prepare into a 1 mg/mL stock solution. The stock solution was diluted with 100% acetonitrile to obtain a solution of 200 ng/mL as a protein precipitator.
The liquid chromatography system was an LC-20AD UFLC high performance liquid chromatography system (Shimadzu, LC-20AD). The mass spectrometry system was an AB Sciex API4000 triple quadrupole mass spectrometer equipped with an electrospray ionization source (ESI) (Applied Biosystems, Canada). The software used to control the liquid-mass coanalyzer and quantitative analysis was Analyst 1.6 (Applied Biosystems, Canada), and the pharmacokinetic parameters were analyzed using WinNonlin (version 5.2, Pharsight, Mountain View, Calif.) non-compartment model.
Liquid chromatographic separation was performed using AQ-C18 column (50×2.1 mm, internal diameter of […]). The column temperature was maintained at room temperature.
The compound to be tested was dissolved in DMSO to prepare a stock solution with a concentration of 1 mg/mL, and diluted with 70% acetonitrile to obtain a series of standard working solutions with concentrations of 30, 10, 3, 1, 0.3, 0.1, 0.03, and 0.01. μg/mL, and a series of standard quality control solutions (24, 8 and 0.03 μg/mL). 5 μL of standard solution and 45 μL of blank plasma matrix were mixed uniformity to obtain standard solutions (3000, 1000, 300, 100, 30, 10, 3, and 1 ng/mL) and quality control standards (plasma samples: 2400, 800, 80, and 3 ng/mL) at each concentration point of the standard curve.

[2] = target: T1, cAMP pathway of MOR receptor (Homo sapiens, UniProt P35372); experiment: cell-based; conditions: cAMP Hunter HEK293 cells, forskolin-induced cAMP; read-out: EC50 of cAMP levels affected by agonistic effect on MOR
T1 construct: host or cells: HEK293 (cAMP Hunter cell line)
T1 sequence (P35372 whole entry): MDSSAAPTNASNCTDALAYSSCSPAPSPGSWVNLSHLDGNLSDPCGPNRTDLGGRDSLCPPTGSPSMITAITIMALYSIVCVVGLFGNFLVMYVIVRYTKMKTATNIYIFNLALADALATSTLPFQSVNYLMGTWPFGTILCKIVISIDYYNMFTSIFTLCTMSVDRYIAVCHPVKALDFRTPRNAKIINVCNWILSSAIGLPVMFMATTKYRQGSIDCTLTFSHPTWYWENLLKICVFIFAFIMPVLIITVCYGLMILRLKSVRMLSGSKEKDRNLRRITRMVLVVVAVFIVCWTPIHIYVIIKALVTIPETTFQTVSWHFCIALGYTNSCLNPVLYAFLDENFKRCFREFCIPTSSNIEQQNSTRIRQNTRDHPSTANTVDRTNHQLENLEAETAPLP
From the text: The purpose of this experiment was to test the agonistic effect of the compounds of the invention on the cAMP pathway of MOR and to evaluate the in vitro activity of the compounds according to EC50.
In this experiment, HitHunter cAMP Assay EFC technology of DiscoverX was used to measure the cAMP level in cells and monitor the functional status of G-protein coupled receptors (GPCRs).
The amount of signal produced was directly proportional to the amount of cAMP in the cell.
The MOR receptor was bound to the inhibitory Gαi protein, so forskolin (for inducing cAMP signal) was used to induce cAMP expression in the experiment, and the inhibitory effect of the compounds on the above induction was measured.
The cAMP Hunter cell line (HEK293, DiscoverX) was removed from the freezer and expanded according to the Cell Standard Operating Procedure (SOP), 20 μL was collected and inoculated into a 384-well microplate and incubated at 37° C. overnight.
The HitHunter cAMP Assay test kit (DiscoverX, 90-0075sm) was used, the kit contained cAMP buffer, cAMP detection solution, and cAMP working solution A.
The formula was used to calculate the percentage of signal activity per well=100%×(1−(average RLU of the test samples−average RLU of the MAX controls)/(average RLU of the solvent controls−average RLU of the MAX controls)). wherein, the MAX control referred to the fluorescence signal value of the endorphin solution, and the solvent control referred to the fluorescence signal value of DMSO. The DiscoveRx CBIS data analysis workstation (ChemInnovation, CA) was used to perform statistical analysis of the percentage of signal activity and the concentration of the compounds by the agonist formula (comes with the software, universal) to calculate the EC50 value.

[3] = target: T2, β-arrestin signaling pathway of MOR (Homo sapiens, UniProt P35372); experiment: cell-based; conditions: PathHunter HEK293 cells, relative to endorphin MAX control
T2 construct: host or cells: HEK293 (PathHunter cell line)
T2 sequence (P35372 whole entry): as above

μ opioid receptor (MOR) = target: T3, μ opioid receptor (MOR) (Homo sapiens, UniProt P35372); experiment: cell-based; conditions: HEK293 stably expressing μ opioid receptor, FLIPR calcium
T3 construct: host or cells: HEK293
T3 sequence (P35372 whole entry, species assumed): as the sequence (P35372 whole entry) above
Experimental: The purpose of the experiment was to test the agonistic effects of the compounds of the present invention on μ opioid receptor (MOR), κ opioid receptor (KOR) and δ opioid receptor (DOR), and to evaluate in vitro activity of the compounds according to the half-maximal effect concentration (EC50).
This test was performed using HEK293 cell lines (the stably expressed cell lines were provided by WuXi AppTec) which stably expressed μ opioid receptor, δ opioid receptor or κ opioid receptor respectively. […] The cells were centrifuged at 1000 rpm for 5 minutes at room temperature to precipitate. The supernatant was sucked out, be careful not to suck out cells. The precipitate was flicked into the loose cells and resuspend in 45 ml DMEM medium. The Vi-CELL XR automatic cell viability detector (BECKMAN COULTER) was used to count the cells, and the cell concentration was adjusted to 10×10^5 cells/ml based on the counting results.
Preparation of probenecid mother solution: 1 ml of FLIPR test solution was added to 77 mg probenecid to prepare a 250 mM solution. The solution was freshly prepared just before use.
The solution was freshly prepared just before use.
The cell plate prepared above was removed from the incubator and 20 ul 2× Fluo-4 Direct™ buffer was added thereto. The final volume in the cell plate was […]. The plate was incubated at 37° C., under 5% CO2 for 50 minutes, and incubated at room temperature for 10 minutes, then was placed into the FLIPR instrument (MD), and the compound plate and pipette box was placed into. The protocol was run on the […] platform, 10 μl of positive drug or the test compound was transfered to the cell plate from the compound plate, and the fluorescent signal was read.
The signal value generated by each well was calculated, and the calculation formula was that: the activity %=(signal value of the test compound−signal value of the solvent)/(signal value of the positive drug−signal value of the solvent).

SD rats = experiment: Respiratory depression in rats, arterial blood gas PCO2; type: in vivo
From the text: (§1) 8-week-old male SD rats weighing 200 g-300 g were used as experimental animals to determine the effect of the compound of Example H05, the compound of Example H08, the compound of Example H10, the compound of Example H16, the compound of Example H17, the compound of Example H18, the compound of Example H21, and the compound of Example H24 on the partial pressure of blood in rats after intravenous administration. The effects of the compounds of the invention on respiratory depression were investigated.
After the rats were acclimatized to the experimental environment for 3 days, each animal was anesthetized with sodium pentobarbital (50-60 mg/kg, ip), and then the right common carotid artery was isolated and the unilateral carotid artery tube-bury surgery was performed (PE60, ID*OD*length as 0.76 mm*1.22 mm*20 cm, buried into the artery 1 cm deep, and the tube was filled with heparin sodium tube sealing solution).

[4] = system: rat surgical incision injury model; experiment: Rat surgical incision injury model, von Frey paw withdrawal threshold; type: in vivo, SD rats; conditions: rats, intravenous 0.3 mg/kg
From the text: as §1, with “H02,” for “H05,”, “H04,” for “H08,”, “H21” for “H21,”, “surgical pain” for “the partial pressure of blood”, “analgesic effect” for “effects”, “was discussed.” for “of the invention on respiratory depression were investigated.”
A certain amount of the compounds or TRV130 (MCE, 15150) was weighed, and dissolved in ethanol/castor oil/water=10/10/80 as a clear and transparent solution.
Three days after the rats were acclimatized to the experimental environment, the preoperative base value was determined, and followed by the surgical pain operation described below, about 24 hours after the surgery, the basic value was measured before administration on all animals, and mechanically hypersensitive animals (the paw withdrawal threshold (PWT) was less than 5 g) was randomly assigned to each administration group according to PWT. The pain threshold was determined 30 minutes and 60 minutes after intravenous administration of the positive drug TRV130 or each compound of the present invention (at a dose of 0.3 mg/kg).
The surgical procedure was performed aseptically, and the surgical instruments (scissors, tweezers, scalpels, surgical cotton and sutures) were sterilized before surgery. The animals were anesthetized with sodium pentobarbital (50 mg/kg, injected intraperitoneally), and the toes of the animals were squeezed to confirm that the animals were completely anesthetized before surgery. From the position of 0.5 cm away from the heel, an incision about 1 cm was made in the longitudinal direction of the toe. After cutting the skin, the musculus flexor digitorum brevis was raised and a blunt injury was caused longitudinally. After pressing to stop bleeding, the wound was sutured. When the animal was completely awake (free to move), the animal was put back into the cage (the reference of the construction of surgical pain model: Timothy J. Brennan, Erik P. Vandermeulen, G. F. Gebhart. Characterization of a rat model of incisional pain. Pain, 64(1996):493-501).
An up-down method was used for the determination of pain sensitivity. The mechanical pain results were expressed as animal paw withdrawal response threshold (PWT). The rat was placed separately in a plexiglass box with a mesh at the bottom of the box to ensure that the rat's feet could be tested. The rat was acclimatized for 15 minutes before the test, and after the acclimatization, the test fiber (von frey fiber, West coast) was used to test in the middle part of the hind foot of the rat. The test fibers included 8 test strengths: 3.61 (0.4 g), 3.84 (0.6 g), 4.08 (1 g), 4.31 (2 g), 4.56 (4 g), 4.74 (6 g), 4.93 (8 g), and 5.18 (15 g). During the test, the test fiber was pressed vertically against the skin and a force was applied to bend the fiber for 6-8 seconds, at an interval of 5 seconds between each test. During the test, the animal's rapid withdrawal was recorded as a pain response. When the test fiber left the animal's skin, the animal's withdrawal was also recorded as a pain response. Starting from 2 g, depending on whether the rats had any pain response, the test was changed into the next test intensity or the previous test intensity. A series of responses of the rats to different test intensities were recorded. […] Wherein, Xf was the logarithmic value of von Frey fiber used in the last test, and K value was the animal withdrawal reaction mode (recorded during the test), which was the value obtained after looking up the table according to the obtained sequence of “X” and “O”, δ=Mean of logarithmic difference between von Frey fibers used in the test.

| SMILES | AUC [1] [ng·h/mL] | half-life [1] [h] | Cmax [1] [ng/mL] | EC50 [2] [nM] | Emax [3] [%] | EC50 (μ opioid receptor (MOR)) [nM] | PCO2, 5 min before administration (SD rats; arterial blood, before administration) [mmHg] | PCO2, 5 min after administration (SD rats; intravenous single dose 0.3 mg/kg (morphine 24 mg/kg), 5 min) [mmHg] | PCO2, 30 min after administration (SD rats; intravenous single dose 0.3 mg/kg (morphine 24 mg/kg), 30 min) [mmHg] | PCO2, 60 min after administration (SD rats; intravenous single dose 0.3 mg/kg (morphine 24 mg/kg), 60 min) [mmHg] | PCO2, 120 min after administration (SD rats; intravenous single dose 0.3 mg/kg (morphine 24 mg/kg), 120 min) [mmHg] | 50% PWT, 30 min after administration ([4]; 30 min) [g] | 50% PWT, 60 min after administration ([4]; 60 min) [g] |
| --- | --- | --- | --- | --- | --- | --- | --- | --- | --- | --- | --- | --- | --- |
| FC(F)(F)Oc1cccc(CNCCC2(c3ccccn3)CCOC3(CCCC3)C2)c1 (stereo not shown) [Example H01, (3-trifluoromethoxybenzyl)-[2-(9-(pyridin-2-yl)-6-oxaspiro[4.5]decan-9-yl)ethyl]amine] | 295 ± 1 | 1.11 ± 0.24 | 202 ± 33.5 | 4.93 | 6.26 | 6.71 |  |  |  |  |  |  |  |
| Clc1ccsc1CNCCC1(c2ccccn2)CCOC2(CCCC2)C1 (stereo not shown) [Example H05, ((3-chloro-thiophen-2-yl)methyl)-[2-(9-(pyridin-2-yl)-6-oxaspiro[4.5]decan-9-yl)ethyl]amine] | 336 ± 14.1 | 3.93 ± 0.13 | 261 ± 21 | 10.2 | 0 | 7.05 | 35.65 ± 0.44 | 36.15 ± 1.93 | 33.65 ± 0.49 | 34.85 ± 0.43 | 35.7 ± 0.95 |  |  |
| Cc1ccc(CNCCC2(c3ccccn3)CCOC3(CCCC3)C2)cc1C (stereo not shown) [Example H07, (3,4-dimethylbenzyl)-[2-(9-(pyridin-2-yl)-6-oxaspiro[4.5]decan-9-yl)ethyl]amine] | 583 ± 31.8 | 1.25 ± 0.05 | 483 ± 33.3 | 3.08 | 1.55 | 3.15 |  |  |  |  |  |  |  |
| COc1ccsc1CNCC[C@@]1(c2ccccn2)CCOC2(CCCC2)C1 [TRV130, reference compound] |  |  |  |  |  |  |  |  |  |  |  | 6.05 ± 0.44 | 5.71 ± 0.33 |
